Results as given in article PMC7593722, “UPLC-MS/MS Method for the Simultaneous Quantification of Eight Compounds in Rat Plasma and Its Application to a Pharmacokinetic Study after Oral Administration of Veratrum (Veratrum nigrum L.) Extract” (BioMed Research International, 2020).

Experiment: in vivo
Details: for Detection in rat plasma after dosing: no complete pharmacokinetic curve; for Tmax: T max
Method: 0.1% formic acid in water (A) and acetonitrile (B) were used as mobile phases with the following gradient elution method: 0-2 min, 15%-25% B; 2-4 min, 25%-50% B; 4-6 min, 50%-90% B; and 6-7 min, 90%-95% B. The separation was performed on a Waters ACQUITY UPLC® CSHTM Phenyl-Hexyl (2.1 × 100 mm, 1.7 μm) column, and the temperature was maintained at 20°C. The flow rate and injection volume were 0.3 mL/min and 5 μL, respectively.
100 μL plasma sample was incorporated with 20 μL methanol and 20 μL of IS (20 ng/mL), and vortexed for 30 seconds. 1 mL ethyl acetate was then added to the sample and vortex-mixed for 3 min. […] The obtained residue was reconstituted in 100 μL methanol and centrifugation at 12000 × g for 10 min. 5 μL of the supernatant was injected for UPLC-MS/MS measurement.
Six male Sprague-Dawley rats (body weight, 220 ± 10 g) were used for this experiment. […] 0.5% CMC-Na aqueous solution was used to dissolve the Veratrum nigrum L. extract to a concentration of 0.2 g/mL suspension. […] After centrifugation at 4000 × g for 10 min at 4°C, the collected plasma was transferred into clean tubes and frozen at -80°C until next analysis. Pharmacokinetic parameters were calculated using “Drug and Statistics 3.0” (DAS 3.0) (Medical College of Wannan, China). The animal protocol was approved by the Animal Ethics Committee of Tianjin University of Traditional Chinese Medicine (TCM-LAEC20190060).
Some important pharmacokinetic parameters were calculated in this study including Cmax, the maximum plasma concentration and time to reach Cmax of each compound (Tmax). The T1/2 was the elimination half-life and it reflects the elimination rate of the drug in the body. The area under the plasma concentration-time curve AUC(0 − t) was calculated using the trapezoidal rule and extrapolated to infinity for AUC(0 − ∞). The mean residence time (MRT) of these ingredients was also investigated.

[1] = oral Veratrum nigrum L. extract 2 g/kg
[2] = male, Sprague-Dawley, rat, in vivo, po, 2 g/kg
[3] = male, Sprague-Dawley, rat, in vivo, po, 2 g/kg, male Sprague-Dawley rats, oral Veratrum nigrum L. extract 2 g/kg, plasma, n = 6, mean ± SD

Structure (SMILES)	Detection in rat plasma after dosing [1]	T max (male Sprague-Dawley rats, oral Veratrum nigrum L. extract 2 g/kg, plasma, n = 6, mean ± SD)	AUC(0-inf) [2]	AUC(0-t) [2]	Cmax [2]	MRT [2]	MRT inf [2]	half-life [2]	Tmax [3]	T max [2]	Tmax [2]
O=c1cc(-c2ccc(O)cc2)oc2cc(O)cc(O)c12 [Apigenin, apigenin]	only detected at the first few plasma sampling points	–	–	–	–	–	–	–	–	–	–
CC1=C2C[C@H]3[C@@H](CC=C4C[C@@H](O)CC[C@@]43C)[C@@H]2CC[C@]12O[C@@H]1C[C@H](C)CN[C@H]1[C@H]2C [Cyclopamine, cyclopamine]	only detected at the first few plasma sampling points	–	–	–	–	–	–	–	–	–	–
CC1=C2C(=O)[C@H]3[C@@H](CC=C4C[C@@H](O)CC[C@@]43C)[C@@H]2CC[C@]12O[C@@H]1C[C@H](C)CN[C@H]1[C@H]2C [Jervine, jervine]	–	32.00 ± 6.20 h	22700 ± 9430 ng·h/mL	22600 ± 9390 ng·h/mL	515 ± 242 ng/mL	38.8 ± 5.58 h	39.1 ± 5.53 h	13.6 ± 1.36 h	> 32 h	–	–
OC[C@H]1O[C@@H](Oc2cc(O)cc(/C=C/c3ccc(O)cc3)c2)[C@H](O)[C@@H](O)[C@@H]1O [Polydatin, polydatin]	–	–	71.2 ± 13.9 ng·h/mL	60.4 ± 18.1 ng·h/mL	27.1 ± 24 ng/mL	13.2 ± 2.98 h	16.5 ± 13.7 h	14.4 ± 10.6 h	0.26 ± 0.29 h	–	–
O=c1c(O)c(-c2ccc(O)c(O)c2)oc2cc(O)cc(O)c12 [Quercetin, quercetin]	only detected at the first few plasma sampling points	–	–	–	–	–	–	–	–	–	–
Oc1ccc(/C=C/c2cc(O)cc(O)c2)cc1 [Resveratrol, resveratrol]	–	–	101 ± 51.5 ng·h/mL	89.7 ± 49.3 ng·h/mL	45 ± 39.5 ng/mL	13.2 ± 7.77 h	19 ± 15.5 h	2.24 ± 1.11 h	0.18 ± 0.17 h	–	–
Cc1c([C@H](C)[C@@H]2NC[C@@H](C)C[C@H]2O)ccc2c1C[C@H]1[C@H]2CC=C2C[C@@H](O)CC[C@@]21C [Veratramine, veratramine]	–	–	8000 ± 2330 ng·h/mL	7980 ± 2330 ng·h/mL	193 ± 76.5 ng/mL	38.8 ± 5.83 h	39 ± 5.91 h	14.2 ± 6.51 h	–	34.08 ± 23.14 h	> 32 h
Cc1c([C@H](C)[C@@H]2NC[C@@H](C)C[C@H]2O)ccc2c1C[C@H]1[C@H]2CC=C2C[C@@H](O[C@@H]3O[C@H](CO)[C@@H](O)[C@H](O)[C@H]3O)CC[C@@]21C [Veratrosine, veratrosine]	–	–	421 ± 199 ng·h/mL	410 ± 183 ng·h/mL	237 ± 155 ng/mL	10.5 ± 6.9 h	11.3 ± 7.68 h	11.5 ± 7.04 h	0.08 h	–	–
